Test results as given in patent publication US20250312258A1, “2,3-PYRROLIDINEDIONE CONJUGATES AND METHODS OF USING THEREOF” (North Carolina State University, priority 2022, published 2025).
≈ marks a conversion by molar mass, not a printed value. Where two headings read alike, the source gives them in different places.

Assays:
VRSA = assay: MIC against VRSA strain panel (VRS/NRS strains); assay type: cell-based; conditions: Staphylococcus aureus, read-out: MIC
E. coli = assay: MIC against E. coli strains; assay type: cell-based; conditions: the 4th table
VRE = assay: MIC / in vitro activity against VRE strain panel; assay type: cell-based, Enterococcus spp.; conditions: Enterococcus, VRE, read-out: MIC
MSSA = assay: MIC against MSSA strain panel; assay type: cell-based; conditions: Staphylococcus aureus, the 4th table, read-out: MIC
S. pneumoniae = assay: MIC against S. pneumoniae strain panel; assay type: cell-based; conditions: Streptococcus pneumoniae, read-out: MIC

MIC (VRSA; NRS 1 / VRSA, NRS-1 (VRSA), the 3rd table): 4 µg/mL (≈ 9.67 µM)
MIC (VRSA; NRS 1 / VRSA, NRS-1 VRSA, the 5th table): 4 µg/mL (≈ 9.67 µM)
MIC (VRSA; NRS 2 / VRSA, NRS-2 VRSA, the 5th table): 2 µg/mL (≈ 4.84 µM)
MIC (VRSA; VRSA, VRS-1 (VRSA), the 3rd table): 32 µg/mL (≈ 77.4 µM)
MIC (VRSA; VRSA, VRS-1 VRSA, the 5th table): 32 µg/mL (≈ 77.4 µM)
MIC (VRSA; VRSA, VRS-2 (VRSA), the 3rd table): 8 µg/mL (≈ 19.3 µM)
MIC (VRSA; VRSA, VRS-2 VRSA, the 5th table): 8 µg/mL (≈ 19.3 µM)
MIC (VRSA; VRSA, VRS-3a VRSA, the 5th table): 4 µg/mL (≈ 9.67 µM)
MIC (VRSA; VRSA, VRS-3b VRSA, the 5th table): > 64 µg/mL
MIC (VRSA; VRSA, VRS-4 (VRSA), the 3rd table): 16 µg/mL (≈ 38.7 µM)
MIC (VRSA; VRSA, VRS-4 VRSA, the 5th table): 16 µg/mL (≈ 38.7 µM)
MIC (VRSA; VRSA, VRS-5 VRSA, the 5th table): 32 µg/mL (≈ 77.4 µM)
MIC (VRSA; VRSA, VRS-6 VRSA, the 5th table): 32 µg/mL (≈ 77.4 µM)
MIC (VRSA; VRSA, VRS-7 VRSA, the 5th table): 32 µg/mL (≈ 77.4 µM)
MIC (VRSA; VRSA, VRS-8 VRSA, the 5th table): 64 µg/mL (≈ 155 µM)
MIC (VRSA; VRSA, VRS-9 VRSA, the 5th table): 64 µg/mL (≈ 155 µM)
MIC (VRSA; VRSA, VRS-10 VRSA, the 5th table): 32 µg/mL (≈ 77.4 µM)
MIC (VRSA; VRSA, VRS-11a VRSA, the 5th table): 64 µg/mL (≈ 155 µM)
MIC (VRSA; VRSA, VRS-11b VRSA, the 5th table): 64 µg/mL (≈ 155 µM)
MIC (E. coli; AR-137 E. coli): >64 µg/mL
MIC (E. coli; Escherichia coli, ATCC25922, ATCC 25922 E. coli, read-out: MIC): > 64 µg/mL
MIC (E. coli; Escherichia coli, AR-451 E. coli, read-out: MIC): > 64 µg/mL
MIC (VRE; 1593 (VRE), the 3rd table): 32 µg/mL (≈ 77.4 µM)
MIC (VRE; 1593 VRE, the 4th table): 32 µg/mL (≈ 77.4 µM)
MIC (VRE; 1751 (VRE), the 3rd table): 16 µg/mL (≈ 38.7 µM)
MIC (VRE; 1751 VRE, the 6th table): 16 µg/mL (≈ 38.7 µM)
MIC (VRE; 1772 VRE, the 6th table): 32 µg/mL (≈ 77.4 µM)
MIC (VRE; 1946 VRE, the 6th table): 32 µg/mL (≈ 77.4 µM)
MIC (VRE; 2059 VRE, the 6th table): 32 µg/mL (≈ 77.4 µM)
MIC (VRE; 2431 (VRE), the 3rd table): 32 µg/mL (≈ 77.4 µM)
MIC (VRE; 2431 VRE, the 6th table): 32 µg/mL (≈ 77.4 µM)
MIC (VRE; 2574 VRE, the 6th table): 32 µg/mL (≈ 77.4 µM)
MIC (VRE; 3053 VRE, the 6th table): 32 µg/mL (≈ 77.4 µM)
MIC (VRE; 3183 (VRE), the 3rd table): 16 µg/mL (≈ 38.7 µM)
MIC (VRE; 3183 VRE, the 6th table): 16 µg/mL (≈ 38.7 µM)
MIC (VRE; 3190 VRE, the 6th table): 32 µg/mL (≈ 77.4 µM)
MIC (VRE; 3191 VRE, the 6th table): 32 µg/mL (≈ 77.4 µM)
MIC (VRE; 3222 (VRE, the 3rd table)): 16 µg/mL (≈ 38.7 µM)
MIC (VRE; 3222 VRE, the 6th table): 16 µg/mL (≈ 38.7 µM)
MIC (VRE; 3235 VRE, the 6th table): 16 µg/mL (≈ 38.7 µM)
MIC (VRE; 3239 VRE, the 6th table): 32 µg/mL (≈ 77.4 µM)
MIC (VRE; 3241 VRE, the 6th table): 32 µg/mL (≈ 77.4 µM)
MIC (VRE; 3623 VRE, the 6th table): 32 µg/mL (≈ 77.4 µM)
MIC (MSSA; VGP16-94 MSSA): 0.5 µg/mL (≈ 1.21 µM)
MIC (MSSA; VGP16-95 MSSA): 1 µg/mL (≈ 2.42 µM)
MIC (MSSA; VGP16-96 MSSA): 0.5 µg/mL (≈ 1.21 µM)
MIC (MSSA; VGP16-97 MSSA): 0.5 µg/mL (≈ 1.21 µM)
MIC (MSSA; VGP16-98 MSSA): 0.5 µg/mL (≈ 1.21 µM)
MIC (MSSA; VGP16-99 MSSA): 1 µg/mL (≈ 2.42 µM)
MIC (MSSA; VGP16-100 MSSA): 1 µg/mL (≈ 2.42 µM)
MIC (MSSA; VGP16-101 MSSA): 1 µg/mL (≈ 2.42 µM)
MIC (MSSA; VGP16-116 MSSA): 1 µg/mL (≈ 2.42 µM)
MIC (MSSA; VGP16-117 MSSA): 1 µg/mL (≈ 2.42 µM)
MIC (S. pneumoniae; ATCC49619, ATCC 49619 S. pneumoniae, CA-MHB w/5% LHB, the 4th table): 0.25 µg/mL (≈ 0.605 µM)
MIC (S. pneumoniae; ATCC49619, ATCC 49619 S. pneumoniae, the 7th table): 0.25 µg/mL (≈ 0.605 µM)
MIC (S. pneumoniae; CO314937 S. pneumoniae, CA-MHB w/5% LHB, the 4th table): 0.25 µg/mL (≈ 0.605 µM)
MIC (S. pneumoniae; CT3-5008 S. pneumoniae, the 7th table): 0.25 µg/mL (≈ 0.605 µM)
MIC (S. pneumoniae; CT3-5803 S. pneumoniae, the 7th table): 0.25 µg/mL (≈ 0.605 µM)
MIC (S. pneumoniae; CT3-8501 S. pneumoniae, the 7th table): 0.25 µg/mL (≈ 0.605 µM)
MIC (S. pneumoniae; CT4-3048 S. pneumoniae, the 7th table): 0.25 µg/mL (≈ 0.605 µM)
MIC (S. pneumoniae; CT4-9046 S. pneumoniae, the 7th table): ≤ 0.125 µg/mL
SMILES: CCC1C(c2ccc(C(F)(F)F)cc2)=C(O)C(=O)N1CCCNCCCCNC (stereo not shown) [Compound 8]
